Data reported in patent US20230277612A1, “SAPONIN DERIVATIVES FOR USE IN MEDICINE” (priority 2020, published 2023).
Like-named read-outs stand apart in the source and are kept apart here.

Legend:
[1] = Critical micellar concentration (CMC) by ANS fluorescence; format: physicochemical; details: Table A7; determined in PBS
Protocol: The critical micellar concentration (CMC) of saponins derived from Saponaria officinalis (SO) (Table A7) and derived from Quillaja saponaria (QS) (Table A8, and Table A9) was determined by the method of DeVendittis et al. (A fluorimetric method for the estimation of the critical micelle concentration of surfactants, Analytical Biochemistry, Volume 115, Issue 2, August 1981, Pages 278-286) as follows:
(§1) The emission spectrum of 8-Anilinonaphthalene-1-sulfonic acid (ANS) in either purified water (MQ) or PBS (Dulbecco's PBS+/+) was determined at dry weight concentrations of saponins ranging from 1 to 1400 pM to cover the range below and above the CMC. Above the CMC, the fluorescence yield of ANS increases and the wavelength of maximum emission decreases due to portioning of the fluorescent dye into micelles. Fluorescence yields were recorded on a Fluoroskan Ascent FL (Thermo Scientific) at an excitation wavelength of 355 nm, and an emission wavelength of 460 nm. 6 μg at a concentration of 75.86 pM of ANS were used per sample and measurement.
The critical micellar concentration (CMC) of saponins was determined by the method of DeVendittis et al. (A fluorimetric method for the estimation of the critical micelle concentration of surfactants, Analytical Biochemistry, Volume 115, Issue 2, August 1981, Pages 278-286) as follows:
as §1, with “μM” for “pM”

[2] = system: EGFR expressing cells (HeLa); format: cell-based
[3] = system: human red blood cells; test: cells; format: cell-based
Protocol: Red blood cells (RBCs) were isolated from a buffy coat using a Ficoll gradient. The obtained RBC pellet (˜4-5 ml) was washed 2× with 50 ml DPBS (without Ca^2+/Mg^2+, PAN-Biotech GmbH). Cells were pelleted by centrifugation for 10 min, 800×g at RT. RBC were counted and resuspended at 500.000.000 c/ml in DPBS (without Ca^2+/Mg^2+), based on total cell count.
(§2) Saponin dilutions were prepared in DPBS (with Ca^2+/Mg^2+, PAN-Biotech GmbH), at 1.11× final strength. For positive lysis control a 0.02% Triton-X100 solution was prepared in DPBS^+/+. Of all compound solutions 135 μl was dispensed/well in a 96 well V-bottom plate. To this 15 μl RBC suspension was added and mixed shortly (10 sec-600 rpm). The plate was incubated 30 min at RT, with gentle agitation. Afterwards the plate was spun for 10 min at 800×g to pellet the RBC and 100-120 μl supernatant was transferred to a standard 96 wp (96 well-plate).
as §2, with “DPBS+/+.” for “DPBS^+/+.”

[4] = system: A431 cells; test: cells; format: cell-based
Protocol: (§3) (FIGS. 66a and 66B). Next toxicity was determined, for this the modified saponins were titrated on HeLa and A431 cells. […] Next toxicity was determined, for this the modified saponins were titrated on HeLa and A431 cells.

[5] = system: HeLa cells; test: cells; format: cell-based
Protocol: as §3

[6] = system: EGFR expressing cells (A431); format: cell-based
[7] = system: EGFR expressing cells (HeLa and A431); details: summary in description
[8] = HeLa, + 5 pM EGFdianthin, read-out: IC50 endosomal escape enhancing activity
[9] = Table A5, read-out: IC50 nM (hemolysis)
[10] = Table A6, read-out: IC50 nM (hemolysis)
[11] = read-out: IC50 hemolytic activity
[12] = Table A6, saponin alone, read-out: IC50 nM (Toxicity)
[13] = Table A5, saponin alone, read-out: IC50 nM (Toxicity)
[14] = A431, + 5 pM EGFdianthin, read-out: IC50 endosomal escape enhancing activity
[15] = Table A5, HeLa cells, saponin titrated + 5 pM EGFdianthin, read-out: IC50 nM (Activity)
[16] = Table A6, A431 cells, saponin titrated + 5 pM EGFdianthin, read-out: IC50 nM (Activity)
[17] = saponin alone, read-out: IC50 toxicity

| Structure (SMILES) | CMC [1] [µM] | IC50 [2, 8] [nM] | IC50 [3, 9] [nM] | IC50 [3, 10] [nM] | IC50 [3, 11] [nM] | IC50 [4, 12] [nM] | IC50 [5, 13] [nM] | IC50 [6, 14] [nM] | Endosomal escape enhancing activity (enhancement of cytotoxicity of effector conjugate) [7] | IC50 [2, 15] [nM] | IC50 [6, 16] [nM] | IC50 [4, 17] [nM] | IC50 [5, 17] [nM] |
| --- | --- | --- | --- | --- | --- | --- | --- | --- | --- | --- | --- | --- | --- |
| CC1OC(OC2C(C)OC(OC(=O)[C@]34CCC(C)(C)CC3C3=CCC5[C@@]6(C)CC[C@H](OC7OC(C(=O)NCCN8C(=O)C=CC8=O)C(O)C(OC8OCC(O)C(O)C8O)C7OC7OC(CO)C(O)C(O)C7O)[C@@](C)(C=O)C6CC[C@@]5(C)[C@]3(C)C[C@H]4O)C(OC3OC(C)C(OC4OCC(O)C(OC5OC(CO)C(O)C(O)C5O)C4O)C(O)C3O)C2O)C(O)C(OC2OCC(O)C(O)C2O)C1O (stereo partly drawn) [SO1861-(Glu-AEM)-(Ac—OH)] | 90 ± 10 | 8000 | 100000 | 100000 | 100000 | > 100000 | > 100000 | 4000 |  |  |  |  |  |
| CC(=O)OC1C(C)OC(OC2C(C)OC(OC(=O)[C@]34CCC(C)(C)CC3C3=CCC5[C@@]6(C)CC[C@H](OC7OC(C(=O)NC(C)(CO)CO)C(O)C(OC8OCC(O)C(O)C8O)C7OC7OC(CO)C(O)C(O)C7O)[C@@](C)(CO)C6CC[C@@]5(C)[C@]3(C)C[C@H]4O)C(OC3OC(C)C(OC4OCC(O)C(OC5OC(CO)C(O)C(O)C5O)C4O)C(O)C3O)C2O)C(O)C1OC1OCC(O)C(O)C1O (stereo partly drawn) [Molecule 9] |  |  |  |  |  |  |  |  | have the capacity to enhance the cytotoxic effect |  |  |  |  |
| CC(=O)OC1C(C)OC(OC2C(C)OC(OC(=O)[C@]34CCC(C)(C)CC3C3=CCC5[C@@]6(C)CC[C@H](OC7OC(C(=O)NC(C)(CO)CO)C(O)C(OC8OCC(O)C(O)C8O)C7OC7OC(CO)C(O)C(O)C7O)[C@@](C)(C=O)C6CC[C@@]5(C)[C@]3(C)C[C@H]4O)C(OC3OC(C)C(OC4OCC(O)C(OC5OC(CO)C(O)C(O)C5O)C4O)C(O)C3O)C2O)C(O)C1OC1OCC(O)C(O)C1O (stereo partly drawn) [Molecule 3A] |  |  |  |  |  |  |  |  | display activity |  |  |  |  |
| CC1OC(OC2C(C)OC(OC(=O)[C@]34CCC(C)(C)CC3C3=CCC5[C@@]6(C)CC[C@H](OC7OC(C(=O)NCCN8C(=O)C=CC8=O)C(O)C(OC8OCC(O)C(O)C8O)C7OC7OC(CO)C(O)C(O)C7O)[C@@](C)(C=O)C6CC[C@@]5(C)[C@]3(C)C[C@H]4O)C(OC3OC(C)C(OC4OCC(O)C(OC5OC(CO)C(O)C(O)C5O)C4O)C(O)C3O)C2O)C(O)C(OC2OCC(O)C(O)C2O)C1O (stereo partly drawn) [Molecule 19] |  |  |  |  |  |  |  |  | display activity |  |  |  |  |
| CC1OC(OC2C(C)OC(OC(=O)[C@]34CCC(C)(C)CC3C3=CCC5[C@@]6(C)CC[C@H](OC7OC(C(=O)NCCN8C(=O)C=CC8=O)C(O)C(OC8OCC(O)C(O)C8O)C7OC7OC(CO)C(O)C(O)C7O)[C@@](C)(CO)C6CC[C@@]5(C)[C@]3(C)C[C@H]4O)C(OC3OC(C)C(OC4OCC(O)C(OC5OC(CO)C(O)C(O)C5O)C4O)C(O)C3O)C2O)C(O)C(OC2OCC(O)C(O)C2O)C1O (stereo partly drawn) [SO1861-(Glu-AEM)-(Ald-OH)-(Ac—OH)] | >150 |  | > 1e+06 | > 1e+06 |  | > 100000 | > 100000 |  |  | > 20000 | > 20000 |  |  |
| CC(=O)OC1C(C)OC(OC2C(C)OC(OC(=O)[C@]34CCC(C)(C)CC3C3=CCC5[C@@]6(C)CC[C@H](OC7OC(C(=O)NCCN8C(=O)C=CC8=O)C(O)C(OC8OCC(O)C(O)C8O)C7OC7OC(CO)C(O)C(O)C7O)[C@@](C)(CO)C6CC[C@@]5(C)[C@]3(C)C[C@H]4O)C(OC3OC(C)C(OC4OCC(O)C(OC5OC(CO)C(O)C(O)C5O)C4O)C(O)C3O)C2O)C(O)C1OC1OCC(O)C(O)C1O (stereo partly drawn) [SO1861-(Glu-AEM)-(Ald-OH)] | 90 ± 10 | 40000 | > 1e+06 | > 1e+06 |  | > 100000 | > 100000 | 20000 |  |  |  |  |  |
| CC1OC(OC2C(C)OC(OC(=O)[C@]34CCC(C)(C)CC3C3=CCC5[C@@]6(C)CC[C@H](OC7OC(C(=O)O)C(O)C(OC8OCC(O)C(O)C8O)C7OC7OC(CO)C(O)C(O)C7O)[C@@](C)(C=O)C6CC[C@@]5(C)[C@]3(C)C[C@H]4O)C(OC3OC(C)C(OC4OCC(O)C(OC5OC(CO)C(O)C(O)C5O)C4O)C(O)C3O)C2O)C(O)C(OC2OCC(O)C(O)C2O)C1O (stereo partly drawn) [SO1861-Ac—OH] | 350 ± 35 | 1000 |  |  |  |  |  | 800 |  |  |  | 2000 | 10000 |
| CC1OC(OC2C(C)OC(OC(=O)[C@]34CCC(C)(C)CC3C3=CCC5[C@@]6(C)CC[C@H](OC7OC(C(=O)NC(C)(CO)CO)C(O)C(OC8OCC(O)C(O)C8O)C7OC7OC(CO)C(O)C(O)C7O)[C@@](C)(CO)C6CC[C@@]5(C)[C@]3(C)C[C@H]4O)C(OC3OC(C)C(OC4OCC(O)C(OC5OC(CO)C(O)C(O)C5O)C4O)C(O)C3O)C2O)C(O)C(OC2OCC(O)C(O)C2O)C1O (stereo partly drawn) [SO1861-(Ald-OH)-(Ac—OH)-(Glu-AMPD)] | 120 ± 12 |  | > 1e+06 | > 1e+06 |  | > 100000 | > 100000 |  |  | > 20000 | > 20000 |  |  |
| CC(=O)OC1C(C)OC(OC2C(C)OC(OC(=O)[C@]34CCC(C)(C)CC3C3=CCC5[C@@]6(C)CC[C@H](OC7OC(C(=O)O)C(O)C(OC8OCC(O)C(O)C8O)C7OC7OC(CO)C(O)C(O)C7O)[C@@](C)(CO)C6CC[C@@]5(C)[C@]3(C)C[C@H]4O)C(OC3OC(C)C(OC4OCC(O)C(OC5OC(CO)C(O)C(O)C5O)C4O)C(O)C3O)C2O)C(O)C1OC1OCC(O)C(O)C1O (stereo partly drawn) [SO1861-Ald-OH] | 135 ± 14 | 600 | 30000 | 30000 | 30000 |  | > 100000 | 600 |  |  |  | 7000 |  |
| CC1OC(OC2C(C)OC(OC(=O)[C@]34CCC(C)(C)CC3C3=CCC5[C@@]6(C)CC[C@H](OC7OC(C(=O)NC(C)(CO)CO)C(O)C(OC8OCC(O)C(O)C8O)C7OC7OC(CO)C(O)C(O)C7O)[C@@](C)(C=O)C6CC[C@@]5(C)[C@]3(C)C[C@H]4O)C(OC3OC(C)C(OC4OCC(O)C(OC5OC(CO)C(O)C(O)C5O)C4O)C(O)C3O)C2O)C(O)C(OC2OCC(O)C(O)C2O)C1O (stereo partly drawn) [SO1861-(Ac—OH)-(Glu-AMPD)] | 90 ± 10 | 3000 | 140000 | 140000 | 140000 | > 100000 | > 100000 | 3000 |  |  |  |  |  |
| CC1OC(OC2C(C)OC(OC(=O)C34CCC(C)(C)CC3C3=CCC5C6(C)CCC(OC7OC(C(=O)O)C(O)C(OC8OCC(O)C(O)C8O)C7OC7OC(CO)C(O)C(O)C7O)C(C)(C=NNC(=O)CCCCCN7C(=O)C=CC7=O)C6CCC5(C)C3(C)CC4O)C(OC3OC(C)C(OC4OCC(O)C(OC5OC(CO)C(O)C(O)C5O)C4O)C(O)C3O)C2O)C(O)C(OC2OCC(O)C(O)C2O)C1O (stereo not drawn) [SO1861-(Ald-EMCH)-(Ac—OH)] | >300 | 8000 | > 1e+06 | > 1e+06 |  | > 100000 | > 100000 | 10000 |  |  |  |  |  |
